Data from US11236106B2, “Cycloalkane-1,3-diamine derivative” (Daiichi Sankyo Company, Limited, priority 2018, dated 2022).
Counter-ions that a name gives are not always drawn.

Target: T1, menin and MLL (menin, Flag tagged; biotinylated MLL1 peptide 1-46aa) (Homo sapiens, UniProt O00255)
T1 sequence (O00255 1-610): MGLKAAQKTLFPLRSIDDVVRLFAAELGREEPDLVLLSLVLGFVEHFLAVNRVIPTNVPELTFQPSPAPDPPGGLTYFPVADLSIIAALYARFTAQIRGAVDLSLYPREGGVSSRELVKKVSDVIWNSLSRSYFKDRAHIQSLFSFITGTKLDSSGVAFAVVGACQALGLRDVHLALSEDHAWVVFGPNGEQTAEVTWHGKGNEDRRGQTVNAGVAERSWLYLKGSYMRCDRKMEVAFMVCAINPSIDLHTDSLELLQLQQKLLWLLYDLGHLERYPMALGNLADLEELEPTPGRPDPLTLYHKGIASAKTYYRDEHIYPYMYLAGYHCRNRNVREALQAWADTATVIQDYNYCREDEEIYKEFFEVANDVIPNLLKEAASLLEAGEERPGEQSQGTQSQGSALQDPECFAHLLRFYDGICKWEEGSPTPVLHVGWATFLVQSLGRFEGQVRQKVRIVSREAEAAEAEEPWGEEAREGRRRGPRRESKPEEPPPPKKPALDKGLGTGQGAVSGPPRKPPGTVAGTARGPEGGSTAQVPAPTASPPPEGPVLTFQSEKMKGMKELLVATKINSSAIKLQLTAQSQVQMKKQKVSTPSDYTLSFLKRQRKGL
Experiment: biochemical
Conditions: IC50, binding inhibitory activity between menin and MLL, AlphaLISA; 1 nM menin, 10 nM biotinylated MLL1 peptide
Experimental: Then, the fluorescence signal by AlphaLISA (registered trademark, PerkinElmer Co., Ltd.) was measured using a plate reader (PerkinElmer Co., Ltd., EnVisionXcite).

Compound	IC50 [nM]
CNc1nc(N(C)[C@H]2C[C@@H](NCc3ccc(-c4cncc5c4ccn5S(C)(=O)=O)cc3)C[C@H]2O)c2cc(CC(F)(F)F)sc2n1 [Example 64, (1R,2S,4R)-4[({4-[1-(methanesulfonyl)-1H-pyrrolo[2,3-c]pyridin-4yl]phenyl}methyl)amino]-2-{methyl[2-(methylamino)-6-(2,2,2trifluoroethyl)thieno[2,3-d]pyrimidin-4-yl]amino}cyclopentan-1-ol hydrochloride]	2.2
CNc1nc(N(C)[C@H]2C[C@@H](NCc3ccc(-c4cccc(S(=O)(=O)N(C)C)c4)cc3)C[C@H]2O)c2cc(CC(F)(F)F)sc2n1 [Example 69, 4′-({[(1R,3R,4S)-3-hydroxy-4-{methyl[2-(methylamino)-6-(2,2,2-trifluoroethyl)thieno[2,3-d]pyrimidin-4-yl]amino}cyclopentyl]amino}methyl)-N,N-dimethyl[1,1′-biphenyl]-3-sulfonamide hydrochloride]	2.8
CNc1ncc(-c2ccc(CN[C@H]3C[C@@H](O)[C@@H](N(C)c4ncnc5sc(CC(F)(F)F)cc45)C3)cc2)cc1OC [Example 92, (1R,2S,4R)-4-[({4-[5-methoxy-6-(methylamino)pyridin-3-yl]phenyl}methyl)amino]-2-{methyl[6-(2,2,2-trifluoroethyl)thieno[2,3-d]pyrimidin-4-yl]amino}cyclopentan-1-ol hydrochloride]	1.5
COc1ncc(-c2ccc(CN[C@H]3CC[C@@H](N(C)c4ncnc5sc(CC(F)(F)F)cc45)C3)cc2)s1 [Example 130, (1R,3S)—N^3-{[4-(2-methoxy-1,3-thiazol-5-yl)phenyl]methyl}-N^1-methyl-N^1-[6-(2,2,2-trifluoroethyl)thieno[2,3-d]pyrimidin-4-yl]cyclopentane-1,3-diamine Hydrochloride]	6.5
COc1nc(N(C)[C@H]2C[C@@H](NCc3cccc(Nc4cccnc4)c3)C[C@H]2O)c2cc(CC(F)(F)F)sc2n1 [Example 120, (1R,2S,4R)-2-{[2-methoxy-6-(2,2,2-trifluoroethyl)thieno[2,3-d]pyrimidin-4-yl](methyl)amino}-4-[({3-[(pyridin-3-yl)amino]phenyl}methyl)amino]cyclopentan-1-ol hydrochloride]	5.8
COc1cc(-c2ccc(CN[C@H]3C[C@@H](O)[C@@H](N(C)c4ncnc5sc(CC(F)(F)F)cc45)C3)cc2)nnc1N(C)C [Example 98, (1R,2S,4R)-4-[({4-[6-(dimethylamino)-5-methoxypyridazin-3-yl]phenyl}methyl)amino]-2-{methyl[6-(2,2,2-trifluoroethyl)thieno[2,3-d]pyrimidin-4-yl]amino}cyclopentan-1-ol hydrochloride]	1.9
COc1cc(-c2ccc(CN[C@H]3C[C@@H](O)[C@@H](N(C)c4ncncc4Oc4ccc(F)cc4C(=O)N(C(C)C)C(C)C)C3)cc2)nnc1OC [Example 89, 2-[(4-{[(1S,2R,4R)-4({[4-(5,6-dimethoxypyridazin-3-yl)phenyl]methyl}amino)-2-hydroxycyclopentyl](methyl)amino}pyrimidin-5-yl)oxy]-5-fluoro-N,N-di(propan-2-yl)benzamide hydrochloride]	5.6

Same assay, conditions: cell free IC50 (nM), 1 nM menin, 10 nM biotinylated MLL1 peptide, AlphaLISA

Compound	IC50 [nM]
COc1cncc(-c2ccc(CN[C@@H]3C[C@H](N(C)c4ncnc5sc(CC(F)(F)F)cc45)C[C@@H]3O)cc2)c1 [Example 51, (1S,2R,4S)-2-({[4(5methoxypyridin-3-yl)phenyl]methyl}amino)-4-{methyl[6-(2,2,2-trilluoroethyl)thieno[2,3-d]pyrimidin-4-yl]amino}cyclopentan-1-ol hydrochloride]	10.1
FC(F)(F)Cc1cc2c(N[C@@H]3CCC[C@H](NCc4ccc(-c5nnc[nH]5)cc4)C3)ncnc2s1 [Example 37, (1S,3R)-N^1-{[4-(4H-1,2,4-triazol-3-yl)phenyl]methyl}-N^3-[6-(2,2,2-trifluoroethyl)thieno[2,3-d]pyrimidin-4-yl]cyclohexane-1,3-diamine hydrochloride]	701
CN(c1ncnc2sc(CC(F)(F)F)cc12)[C@@H]1CC[C@H](NCc2ccc(NCc3ccccc3)cc2)C1 [Example 7, (1R,3S)—N^3-{[4-(benzylamino)phenyl]methyl}-N^1-methyl-N^1-[6-(2,2,2-trifluoroethyl)thieno[2,3-d]pyrimidin-4-yl]cyclopentane-1,3-diamine Hydrochloride]	151
COc1cncc(Nc2ccc(CN[C@H]3CC[C@@H](N(C)c4ncnc5sc(CC(F)(F)F)cc45)C3)cc2)c1 [Example 8, (1R,3S)—N^3-({4-[(5-methoxypyridin-3-yl)amino]phenyl}methyl)-N^1-methyl-N^1-[6-(2,2,2-trifluoroethyl)thieno[2,3-d]pyrimidin-4-yl]cyclopentane-1,3-diamine Hydrochloride]	8.8
O=C(NC1COC1)c1ccc(CN[C@H]2CCC[C@@H](Nc3ncnc4sc(CC(F)(F)F)cc34)C2)cc1 [Example 10, N-(oxetan-3-yl)-4-({[(1S,3R)-3-{[6-(2,2,2-trifluoroethyl)thieno[2,3-d]pyrimidin-4-yl]amino}cyclohexyl]amino}methyl)benzamide Hydrochloride]	199
COc1cncc(-c2ccc(CN[C@@H]3C[C@H](Nc4ncnc5sc(CC(F)(F)F)cc45)CC(F)(F)C3)cc2)c1 [Example 52, (1R,3S)-5,5-difluoro-N^1-{[4-(5-methoxypyridin-3-yl)phenyl]methyl}-N^3-[6-(2,2,2-trifluoroethyl)thieno[2,3-d]pyrimidin-4-yl]cyclohexane-l,3-diamine hydrochloride]	612
CNc1nc(N(C)[C@H]2C[C@@H](NCc3ccc(-n4ccnc4)cc3)C[C@H]2O)c2cc(CC(F)(F)F)sc2n1 [Example 61, (1R,2S,4R)-4-({[4-(1H-imidazol-1-yl)phenyl]methyl}amino)-2-{methyl[2-(methylamino)-6-(2,2,2-trifluoroethyl)thieno[2,3-d]pyrimidin-4-yl]amino}cyclopentan-1-ol hydrochloride]	1.9
COc1cncc(-c2ccc(CN[C@H]3CC[C@@H](N(C)c4nc(C)nc5sc(CC(F)(F)F)cc45)C3)cn2)c1 [Example 46, (1R,3S)-N^3-[(5′-methoxy[2,3′-bipyridine]-5-yl)methyl]-N^1-methyl-N^1-[2-methyl-6-(2,2,2-trifluoroethyl)thieno[2,3-d]pyrimidin-4-yl]cyclopentane-1,3-diamine hydrochloride]	39.4
COc1cncc(-c2ccc(CN[C@H]3CC[C@@H](N(C)c4ncnc5sc(C6CC6)cc45)C3)cc2)c1 [Example 45, (1R,3S)-N^1-(6-cyclopropylthieno[2,3-d]pyrimidin-4-yl)-N^3-{[4-(5-methoxypyridin-3-yl)phenyl]methyl}-N^1-methylcyclopentane-1,3-diamine hydrochloride]	33.3
CN(c1ncnc2sc(CC(F)(F)F)cc12)[C@@H]1CC[C@H](NCc2ccc(S(=O)(=O)c3ccccc3)cc2)C1 [Example 53, (1R,3S)N^3-{[4-(benzenesulfonyl)phenyl]methyl}N^1-methyl-N^1-[6-(2,2,2-trifluoroethyl)thieno[2,3-d]pyrimidin-4-yl]cyclopentane-1,3-diamine hydrochloride]	17.7
OCCN(c1ncnc2sc(CC(F)(F)F)cc12)[C@@H]1CC[C@H](NCc2ccc(-c3cccnc3)cc2)C1 [Example 42, 2-{[(1R,3S)-3-({[4-(pyridin-3-yl)phenyl]methyl}amino)cyclopentyl][6-(2,2,2-trifluoroethyl)thieno[2,3-d]pyrimidin-4-yl[amino}ethan-1-ol hydrochloride]	105
